Measured values published in patent publication US20240239790A1, “7-Morpholino-1,6-Naphthyridin-5-yl Derivatives and Pharmaceutical Compositions Thereof Useful as DNA-PK Inhibitor” (adMare Therapeutics Society, priority 2021, published 2024).
pEC50, pIC50: −log10 of the molar value. Read-outs that look alike come from different tables or passages of the source.

Key:
[1] = Hepatocyte Stability Assay, human hepatocytes; assay type: in vitro ADME; conditions: for hepatocyte CLint at 1 uM: both sexes, cryopreserved hepatocytes, pH 7.3, human hepatocytes 0.7 million cells per mL, 1 uM compound; for Hepatocyte Stability Human % rem. 120 min: human hepatocytes
Procedure: (§1) Cryopreserved mouse hepatocytes were obtained from a pool of 10 or more male CD-1 mice. Cryopreserved human hepatocytes were obtained from a pool of 10 or more donors of mixed gender. Final hepatocyte density was 0.7 million viable cells per mL and test compound concentration was 1 uM with a maximum of 0.01% DMSO. Cryopreserved hepatocytes were thawed, washed, and resuspended in Krebs-Heinslet buffer (pH 7.3). The reaction was initiated by adding the test compound into cell suspension and incubated for 0, […], 1, 1.5, and 2 h, respectively, at 37° C./5% C02. The reaction was stopped by adding acetonitrile into the incubation mixture. Samples were then mixed, transferred completely to another 96-well plate, and centrifuged. Supernatants were used for HPLC-MS/MS analysis. […] Peak areas corresponding to the test compound were recorded.

[2] = target: T1, DNA-PK phosphorylation at Serine 2056 (Homo sapiens, UniProt P78527); assay: Cellular Assay for Inhibition of DNA-PK Phosphorylation at Serine 2056 in FaDu cells (sandwich ELISA, neocarzinostatin); assay type: cell-based; conditions: pSer2056 DNA-PK, neocarzinostatin 1 μg/mL, Table 1
T1 construct: FaDu cells were purchased from ATCC; host or cells: FaDu
Method in brief: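 FaDu cells pre-treated with compound (0.3% DMSO) for 1 h, then neocarzinostatin 1 μg/mL final added for 2 h to induce DSBs. Protein-normalised lysates read by sandwich ELISA for total and pSer2056 DNA-PK; % inhibition normalised between DMSO and NCS controls, IC50 from variable-slope log(inhibitor) fit.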

[3] = Hepatocyte Stability Assay, mouse hepatocytes; assay type: in vitro ADME; conditions: for hepatocyte CLint at 1 uM: male, CD-1, cryopreserved hepatocytes, pH 7.3, mouse hepatocytes 0.7 million cells per mL, 1 uM compound; for Hepatocyte Stability Mouse % rem. 120 min: mouse hepatocytes
Procedure: as §1

[4] = tested on: pDNA-PK induction in HCT116 tumour spheroids; assay: Multicellular tumour spheroid + radiation, pDNA-PK (ser2056) inhibition, immunohistochemical endpoint, HCT116; assay type: cell-based; conditions: Homo sapiens, 20 Gy, 20% O2
Method in brief: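 HCT116 spheroids (~0.5 mm) in MEM/10% FBS, 20% O2, 37° C., pre-incubated 1 h with compound (10 or 5 μM down to 3.5 nM), irradiated 20 Gy, then 2 h further with compound. Cryosections immunostained for pDNA-PK ser2056; EC50 is concentration halving radiation-induced pDNA-PK.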

[5] = HCT-116, 2 h, spheroids, Example 8, read-out: Cell line: HCT116 Immunohistochemical endpoint pDNA-PK inhibition EC50
[6] = HCT-116, 2 hours following radiation, Example 9 Study 2, read-out: Spheroid Cell line: HCT116 Immunohistochemical endpoint pDNA-PK inhibition EC50
[7] = HCT-116, Spheroid, Cell Line: HCT115 (so in the source), 2 hours following radiation, Example 7, read-out: EC50, Immunohistochemical endpoint, pDNA-PK inhibition

| SMILES | hepatocyte CLint at 1 uM [1] | Hepatocyte Stability Human % rem. 120 min [1] | pIC50 [2] | hepatocyte CLint at 1 uM [3] | Hepatocyte Stability Mouse % rem. 120 min [3] | pEC50 [4, 5] | pEC50 [4, 6] | pEC50 [4, 7] |
| --- | --- | --- | --- | --- | --- | --- | --- | --- |
| CN(C)C(=O)COc1cnc(N[C@H]2CC[C@@H](Oc3nc(N4CCOCC4)cc4ncccc34)CC2)nc1 [Compound 54, N,N-Dimethyl-2-((2-(((1s,4s)-4-((7-morpholino-1,6-naphthyridin-5-yl)oxy)cyclohexyl)amino)pyrimidin-5-yl)oxy)acetamide] | < 8.2 µL/min/1e6 cells | F (% remaining = 25-50%) | > 7.00 | < 8.2 µL/min/1e6 cells | G (% remaining = 50-75%) | 6.30 to 8.00 | 6.30 to 8.00 | 6.30 to 8.00 |
| O=C(COc1cnc(N[C@H]2CC[C@@H](Oc3nc(N4CCOCC4)cc4ncccc34)CC2)nc1)N1CCOCC1 [Compound 61, 1-Morpholino-2-((2-(((1s,4s)-4-((7-morpholino-1,6-naphthyridin-5-yl)oxy)cyclohexyl)amino)pyrimidin-5-yl)oxy)ethan-1-one] | < 8.2 µL/min/1e6 cells | G (% remaining = 50-75%) | > 7.00 | < 8.2 µL/min/1e6 cells | G (% remaining = 50-75%) |  | 6.30 to 8.00 | 6.30 to 8.00 |
| CN1CCN(C(=O)COc2cnc(N[C@H]3CC[C@@H](Oc4nc(N5CCOCC5)cc5ncccc45)CC3)nc2)CC1 [Compound 62, 1-(4-Methylpiperazin-1-yl)-2-((2-(((1s,4s)-4-((7-morpholino-1,6-naphthyridin-5-yl)oxy)cyclohexyl)amino)pyrimidin-5-yl)oxy)ethan-1-one] | > 8.2 µL/min/1e6 cells | F (% remaining = 25-50%) | > 7.00 | < 8.2 µL/min/1e6 cells | H (% remaining = 75-100%) |  | 6.00 to 6.30 | 6.00 to 6.30 |
| O=C(COc1cnc(N[C@H]2CC[C@@H](Oc3nc(N4CCOCC4)cc4ncccc34)CC2)nc1)N1CCNCC1 [Compound 63, 2-((2-(((1s,4s)-4-((7-Morpholino-1,6-naphthyridin-5-yl)oxy)cyclohexyl)amino)pyrimidin-5-yl)oxy)-1-(piperazin-1-yl)ethan-1-one] | > 8.2 µL/min/1e6 cells | F (% remaining = 25-50%) | > 7.00 | < 8.2 µL/min/1e6 cells | H (% remaining = 75-100%) |  | 5.00 to 6.00 | 5.00 to 6.00 |
| CN(C)CCOc1cnc(N[C@H]2CC[C@@H](Oc3nc(N4CCOCC4)cc4ncccc34)CC2)nc1 [Compound 64, 5-(2-(Dimethylamino)ethoxy)-N-((1s,4s)-4-((7-morpholino-1,6-naphthyridin-5-yl)oxy)cyclohexyl)pyrimidin-2-amine] |  |  | 6.00 to 7.00 | < 8.2 µL/min/1e6 cells | G (% remaining = 50-75%) | 6.30 to 8.00 | 6.30 to 8.00 | 6.30 to 8.00 |
| NCCOc1cnc(N[C@H]2CC[C@@H](Oc3nc(N4CCOCC4)cc4ncccc34)CC2)nc1 [Compound 65, 5-(2-Aminoethoxy)-N-((1s,4s)-4-((7-morpholino-1,6-naphthyridin-5-yl)oxy)cyclohexyl)pyrimidin-2-amine] | < 8.2 µL/min/1e6 cells | F (% remaining = 25-50%) | > 7.00 | < 8.2 µL/min/1e6 cells | G (% remaining = 50-75%) |  | 5.00 to 6.00 | 5.00 to 6.00 |
| CC(=O)NCCOc1cnc(N[C@H]2CC[C@@H](Oc3nc(N4CCOCC4)cc4ncccc34)CC2)nc1 [Compound 66] | < 8.2 µL/min/1e6 cells | G (% remaining = 50-75%) | > 7.00 | < 8.2 µL/min/1e6 cells | F (% remaining = 25-50%) |  | 5.00 to 6.00 | 5.00 to 6.00 |
| c1cnc2cc(N3CCOCC3)nc(O[C@H]3CC[C@@H](Nc4ncc(OCCN5CCOCC5)cn4)CC3)c2c1 [Compound 68, N-((1s,4s)-4-((7-Morpholino-1,6-naphthyridin-5-yl)oxy)cyclohexyl)-5-(2-morpholinoethoxy)pyrimidin-2-amine] | > 8.2 µL/min/1e6 cells | F (% remaining = 25-50%) | 6.00 to 7.00 | < 8.2 µL/min/1e6 cells | G (% remaining = 50-75%) |  | 6.00 to 6.30 | 6.00 to 6.30 |
| CN1CCN(CCOc2cnc(N[C@H]3CC[C@@H](Oc4nc(N5CCOCC5)cc5ncccc45)CC3)nc2)CC1 [Compound 69, 5-(2-(4-Methylpiperazin-1-yl)ethoxy)-N-((1s,4s)-4-((7-morpholino-1,6-naphthyridin-5-yl)oxy)cyclohexyl)pyrimidin-2-amine] | < 8.2 µL/min/1e6 cells | G (% remaining = 50-75%) | > 7.00 | < 8.2 µL/min/1e6 cells | H (% remaining = 75-100%) |  | 5.00 to 6.00 | 5.00 to 6.00 |
| CNC(=O)COc1cnc(N[C@H]2CC[C@@H](Oc3nc(N4CCOCC4)cc4ncccc34)CC2)nc1 [Compound 71, N-Methyl-2-((2-(((1s,4s)-4-((7-morpholino-1,6-naphthyridin-5-yl)oxy)cyclohexyl)amino)pyrimidin-5-yl)oxy)acetamide] | < 8.2 µL/min/1e6 cells | G (% remaining = 50-75%) | > 7.00 | < 8.2 µL/min/1e6 cells | G (% remaining = 50-75%) |  | 6.30 to 8.00 | 6.30 to 8.00 |
| O=C(O)c1cnc2cc(N3CCOCC3)nc(O[C@H]3CC[C@@H](n4ccnc4)CC3)c2c1 [Compound 165, 5-(((1s,4s)-4-(1H-imidazol-1-yl)cyclohexyl)oxy)-7-morpholino-1,6-naphthyridine-3-carboxylic acid] |  |  | 4.52 to 5.00 | < 8.2 µL/min/1e6 cells | H (% remaining = 75-100%) | 4.00 to 5.00 | 4.00 to 5.00 | 4.00 to 5.00 |
| O=C(NO)c1cnc2cc(N3CCOCC3)nc(O[C@H]3CC[C@@H](n4ccnc4)CC3)c2c1 [Compound 172, 5-(((1s,4s)-4-(1H-imidazol-1-yl)cyclohexyl)oxy)-N-hydroxy-7-morpholino-1,6-naphthyridine-3-carboxamide] |  |  | 5.00 to 6.00 | > 8.2 µL/min/1e6 cells | F (% remaining = 25-50%) | 5.00 to 6.00 | 5.00 to 6.00 | 5.00 to 6.00 |
| CS(=O)(=O)NC(=O)c1cnc2cc(N3CCOCC3)nc(O[C@H]3CC[C@@H](n4ccnc4)CC3)c2c1 [Compound 175, 5-(((1s,4s)-4-(1H-imidazol-1-yl)cyclohexyl)oxy)-N-(methylsulfonyl)-7-morpholino-1,6-naphthyridine-3-carboxamide] |  |  | 4.52 to 5.00 |  |  | 4.00 to 5.00 | 4.00 to 5.00 | 4.00 to 5.00 |
